Laboratory results published in patent publication US9464053B2, “Compositions for reducing Aβ 42 production and their use in treating alzheimer's disease (AD)” (KAREUS THERAPEUTICS SA, priority 2010, dated 2016).
Counter-ions that a name gives are not always drawn. Like-named read-outs stand apart in the source and are kept apart here. Marks after values point to notes of the source that are not given here. Each block holds one compound with its values, some of them ahead of it.

Legend:
Aβ42 secretion = test: Reduction of Aβ42 production in human neuronal SH-SY5Y cells (sandwich ELISA of cell media); format: cell-based; conditions: read-out: Aβ42 IC50
Description: We used the human Neuroblastoma SH-SY5Y cells for drug testing as a model for Aβ42 production. […] Cell toxicity was monitored using the MTT assay and all data reported are corrected for any cell loss.
The capture antibody, detection antibody and secondary antibody as well as standard purified preparations of Aβ42 were obtained from Sigma-Aldrich. Cells were cultured for 24 h in the presence or absence of compounds and the conditioned medium was subjected to sELISA.
Cells were incubated overnight with increasing concentrations the compounds. The cell media was then harvested and Aβ42 in the media was quantitated using sandwich ELISA.

Aβ-42 levels in brain = test: Brain Aβ-42 levels in rat after two weeks oral treatment (ELISA); format: in vivo; conditions: for Aβ-42 levels Mean ± SE: rat brain, soluble fraction; for Percentage change: vs Control
Description: Animals are randomized into different treatment groups based on body weight. The test compounds are administered orally for 2 weeks while the control animals are administered the vehicle alone.
At the end of the study, animals are sacrificed 2 hours after the last dose and brain samples are excised and immediately frozen on dry ice. The frozen brains are homogenized in 3 volumes (w/v) of ice-cold 0.2% Diethylamine containing 50 mM NaCl, pH 10, and protease inhibitors, and then centrifuged at 15000 rpm at 4° C. for 30 min using a centrifuge. The resulting supernatant is retained as the soluble fraction and neutralized by addition of 10% 0.5 M Tris-HCl, pH 6.8.
Ar3-42 levels in brain tissue extracts were determined by ELISA. […] 100 μL of this was coated per well in a 96 well immunoplate (NUNC) at 4° C. for 16-18 hours. The plate was washed 3× with 230 μL of wash buffer. The wells were then blocked with 150 μL of blocking buffer for 1 hour. The plate was washed 3× with 230 μL of wash buffer. Samples, standard (2500-1.1 ng/ml) and blank were added to the appropriate wells and incubated with mild shaking for 2 hours. The plate was then washed 3× with 230 μL of wash buffer. […] 100 μL of this was added per well and incubated with mild shaking for 2 hours. The plate was washed 3× with 230 μl of wash buffer. 100 lit of Detection antibody, Anti-rabbit IgG whole molecule HRP conjugate (Sigma A6154 diluted 1:1000 with 1% BSA) added in to the wells and incubated for 2 hours with mild shaking. The plate was washed 3× with 230 μl of wash buffer followed by 100 μL of Strepavidin HRP (1:200 diluted with 1% BSA). The plate was 3× with 230 μL of wash buffer and 100 μL of TMB/H2O2 substrate was added and incubated for 20 minutes. The reaction was topped by adding 50 μL of 2N H2SO4 and the absorbance was measured at 450/570 nm in a microplate reader (BioTek)

soluble brain aβ-40 = test: Tg2576 transgenic mouse model, soluble brain aβ-40 (ELISA); format: in vivo; conditions: Tg 2576 mice, 4 weeks, 50 mg/kg orally daily
Description: (§1) The study used 6-month old Tg (HuApp695.K670-M671L) 2576 transgenic and age-matched C57B16/SJL non-transgenic control mice (Hsiao K, Chapman P, Nilsen S, Eckman C, Harigaya Y, et al. Correlative memory deficits, Abeta elevation, and amyloid plaques in transgenic mice. Science. 1996; 274:99-102). Mice were obtained from Jackson Labs and a colony was established. Tg2576 transgenic mice over-express human APP with the double Swedish mutation. Tg2756 and control mice were treated for a period of 4 weeks with either 1) vehicle alone n=10), 2) compound 9 (50 mg/kg dosed orally; n=10). Soluble brain aβ-42 and aβ-40 were measured using the typical ELISA protocol described before.

Wistar rats = test: Morris water maze task, scopolamine memory deficit; format: in vivo, rat; conditions: mean, p.o., scopolamine-treated
Description: Male wistar rats are used for this study. The Water maze consists of a 1.8 m diameter; 0.6 m high circular tank filled with water (24±2° C.). A platform 16 cm diameter will be placed 1.0 cm below the water surface in the center of one of the four imaginary quadrants, which remains constant for all the rats. […] Rats were lowered gently, feet first into water. A rat was allowed to swim for 60 s to find the platform. If the platform was found during this time the trial was stopped and rat was allowed to stay on platform for 30 s before being removed from the maze. If the platform was not found during 60 s trial, then the rat was manually placed on the platform facing a visual cue and allowed to stay on platform for 30 s before being removed from the maze. The rats were taken off the platform (ensuring that the rat sees the investigator's hand from the front before removal) and dried with a towel gently. Each rat received 4 trials in a day. The maze has 8 starting points. On the first and third day the animals started from 1st, 3rd, 5th & 7th starting points. On the second and fourth day the animals started from 2nd, 4th, 6th & […] starting points. Retention of the task was assessed on 5th day in which each animal received a single 120 s probe trial during which platform was removed from the pool. Rats were not treated prior to retention trail. Rats were placed under a heating lamp for 5 min before being returned to its home cage. Latency to reach the platform ([…]), swim speed (cm/s) and path length (cm) was measured in acquisition trials. Percentage time spent in target quadrant (quadrant in which platform is placed during acquisition training) and swim speed (cm/s) was calculated in probe trial. The animals were tracked and the data was generated using the Video Mot 2 software. Experimentation was carried out over a period of 10 days i.e. first 6 animals was experimented on first five days and the next 6 animals was experimented on next five days (Pretreatment and testing schedule was initiated accordingly such that all animals receive 9 doses of vehicle or test drug). Data obtained was analyzed by Repeated measures Two way ANOVA followed by Bonferroni post tests by using the Graph pad prism software package.

soluble brain aβ-42 = test: Tg2576 transgenic mouse model, soluble brain aβ-42 (ELISA); format: in vivo; conditions: Tg 2576 mice, 4 weeks, 50 mg/kg orally daily
Description: as §1

[1] = SH-SY5Y cells incubated overnight, Aβ42 in media by sandwich ELISA
[2] = Day-1 acquisition trials, 1 mg/kg
[3] = Day-1 acquisition trials, 3 mg/kg
[4] = Day-1 acquisition trials, 10 mg/kg
[5] = Day-2 acquisition trials, 1 mg/kg
[6] = Day-2 acquisition trials, 3 mg/kg
[7] = Day-2 acquisition trials, 10 mg/kg
[8] = Day-3 acquisition trials, 1 mg/kg
[9] = Day-3 acquisition trials, 3 mg/kg
[10] = Day-3 acquisition trials, 10 mg/kg
[11] = Day-4 acquisition trials, 1 mg/kg
[12] = Day-4 acquisition trials, 3 mg/kg
[13] = Day-4 acquisition trials, 10 mg/kg

Compound: C=CCc1ccc(OC(=O)COC(=O)c2cccnc2)c(OC)c1 (as salt: hydrochloride) [Compound 8, nicotinic acid 4-allyl-2-methoxy-phenoxycarbonylmethyl ester]
- melting point: 109.3 to 111.2 °C

Compound: C=CCc1ccc(OC(=O)C(NC(=O)c2cccnc2)C(C)C)c(OC)c1 (centres unmarked) [Compound 3, 3-methyl-2-[pyridine-3-carbonyl]-amino-butyric acid-4-allyl-2-methoxy phenyl ester]
- IC50 (Aβ42 secretion; [1]): > 52.2 µM

Compound: C=CCc1ccc(OC(=O)C(Cc2c[nH]c3ccccc23)NC(=O)c2cccnc2)c(OC)c1 (centres unmarked) [Compound 4]
- IC50 (Aβ42 secretion; [1]): > 52.2 µM

Compound: C=CCc1ccc(OC(=O)C(Cc2ccc(O)cc2)NC(=O)c2cccnc2)c(OC)c1 (centres unmarked) [Compound 5, 3-(4-hydroxyphenyl)2-[(pyridine-3-carbonyl)amino]propionic acid-4-allyl-2-methoxy phenyl ester]
- IC50 (Aβ42 secretion; [1]): > 52.2 µM

Compound: C=CCc1ccc(OC(=O)C(NC(=O)c2cccnc2)C(C)CC)c(OC)c1 (centres unmarked) [Compound 6, 3-methyl-2-[pyridine-3-carbonyl]-amino-pentanoic acid-4-allyl-2-methoxy phenyl ester]
- IC50 (Aβ42 secretion; [1]): > 52.2 µM

Compound: C=CCc1ccc(OC(=O)C(CCC(=O)O)NC(=O)c2cccnc2)c(OC)c1 (centres unmarked) [Compound 7, 2-[pyridine-3-carbonyl-amino]-pentane dioic acid-1-(4-allyl-2-methoxyphenyl)ester]
- IC50 (Aβ42 secretion; [1]): > 52.2 µM

Compound: C=CCc1ccc(OC(=O)COC(=O)c2cccnc2)c(OC)c1 [Compound 8, nicotinic acid 4-allyl-2-methoxy-phenoxycarbonylmethyl ester]
- IC50 (Aβ42 secretion; SH-SY5Y): > 15 µM

Compound: C=CCc1ccc(OC(=O)C(CC(C)C)NC(=O)c2cccnc2)c(OC)c1 (centres unmarked) [Compound 15, 4-methyl-2-[pyridine-3-carbonyl]-amino-pentanoic acid-4-allyl-2-methoxy phenyl ester]
- IC50 (Aβ42 secretion; [1]): > 52.2 µM

Compound: CCC(C)(C)C(=O)O[C@H]1C[C@@H](C)C=C2C=C[C@H](C)[C@H](CC[C@@H]3C[C@@H](O)CC(=O)O3)[C@H]21 [Simvastatin, reference compound]
- Percentage change (Aβ-42 levels in brain; Simvastatin 250 mg/kg oral, group terminated on day 12): 8%

Continued, in another order:

- IC50 (Aβ42 secretion; [1]): > 52.2 µM
Compound: C=CCc1ccc(OC(=O)C(CCSC)NC(=O)c2cccnc2)c(OC)c1 (centres unmarked) [Compound 2, 4-methyl-sulfanyl-2-[(pyridine-3carbonyl)-amino] butyric acid-4-allyl-2-methoxy phenyl ester]

- IC50 (Aβ42 secretion; [1]): 18.7 µM
Compound: C=CCc1ccc(OC(=O)CC(OC(=O)c2cccnc2)C(=O)OC)c(OC)c1 (centres unmarked) [Compound 9, 2-(Pyridine-3-carbonyloxy)-succinic acid 4-(4-allyl-2-methoxy-phenyl) ester 1-methyl ester]
- Aβ-42 levels Mean ± SE (Aβ-42 levels in brain; 10 mg/kg oral, 2 weeks): 44.14 ± 7.88 ng/mg protein
- Aβ-42 levels Mean ± SE (Aβ-42 levels in brain; 25 mg/kg oral, 2 weeks): 31.03 ± 3.98 ng/mg protein
- Aβ-42 levels Mean ± SE (Aβ-42 levels in brain; 50 mg/kg oral, 2 weeks): 21.85 ± 1.75 ng/mg protein
- Percentage change (Aβ-42 levels in brain; 10 mg/kg oral, 2 weeks): −22%
- Percentage change (Aβ-42 levels in brain; 25 mg/kg oral, 2 weeks): −45%
- Percentage change (Aβ-42 levels in brain; 50 mg/kg oral, 2 weeks): −61%
- reduction of brain levels of soluble aβ-40 (soluble brain aβ-40): 23%
- Path length (Wistar rats; [2]): 1423.43 cm
- Swim speed (Wistar rats; [2]): 26.53 cm/s
- Target latency (Wistar rats; [2]): 53859.40 ms
- Path length (Wistar rats; [3]): 1329.08 cm
- Swim speed (Wistar rats; [3]): 25.77 cm/s
- Target latency (Wistar rats; [3]): 50283.22^ ms
- Path length (Wistar rats; [4]): 1480.57 cm
- Swim speed (Wistar rats; [4]): 26.93 cm/s
- Target latency (Wistar rats; [4]): 54445.94 ms
- Path length (Wistar rats; [5]): 1619.28 cm
- Swim speed (Wistar rats; [5]): 30.67 cm/s
- Target latency (Wistar rats; [5]): 51421.60 ms
- Path length (Wistar rats; [6]): 1503.53 cm
- Swim speed (Wistar rats; [6]): 29.97 cm/s
- Target latency (Wistar rats; [6]): 48347.97^ ms
- Path length (Wistar rats; [7]): 1755.96 cm
- Swim speed (Wistar rats; [7]): 31.99 cm/s
- Target latency (Wistar rats; [7]): 53382.85 ms
- Path length (Wistar rats; [8]): 1414.4745^ cm
- Swim speed (Wistar rats; [8]): 31.07 cm/s
- Target latency (Wistar rats; [8]): 43128.23 ms
- Path length (Wistar rats; [9]): 1038.10** cm
- Swim speed (Wistar rats; [9]): 28.45** cm/s
- Target latency (Wistar rats; [9]): 32780.27** ms
- Path length (Wistar rats; [10]): 1509.45 cm
- Swim speed (Wistar rats; [10]): 30.89^ cm/s
- Target latency (Wistar rats; [10]): 45171.54 ms
- Path length (Wistar rats; [11]): 1233.92* cm
- Swim speed (Wistar rats; [11]): 29.51* cm/s
- Target latency (Wistar rats; [11]): 40643.54 ms
- Path length (Wistar rats; [12]): 946.10*** cm
- Swim speed (Wistar rats; [12]): 28.57*** cm/s
- Target latency (Wistar rats; [12]): 31915.04*** ms
- Path length (Wistar rats; [13]): 1254.41^ cm
- Swim speed (Wistar rats; [13]): 29.36** cm/s
- Target latency (Wistar rats; [13]): 40663.06 ms
- reduction of brain levels of soluble aβ-42 (soluble brain aβ-42): 22%

- IC50 (Aβ42 secretion; [1]): 33.4 µM
Compound: C=CCc1ccc(OC(=O)C2CCCN2C(=O)c2cccnc2)c(OC)c1 (centres unmarked) [Compound 10, 1-(pyridine-3-carbonyl)-pyrrolidine-2-carboxylic acid 4-allyl-2-methoxy-phenyl ester]

- IC50 (Aβ42 secretion; [1]): 15.9 µM
Compound: C=CCc1ccc(OC(=O)CNC(=O)c2cccnc2)c(OC)c1 [Compound 11, [(pyridine-3-carbonyl)-amino]-acetic acid 4-allyl-2-methoxy-phenyl ester]

- IC50 (Aβ42 secretion; [1]): 26.1 µM
Compound: C=CCc1ccc(OC(=O)CCCNC(=O)c2cccnc2)c(OC)c1 [Compound 13, 4[(pyridine-3-carbonyl)-amino]-butyric acid-4-allyl-2-methoxy phenyl ester]

- IC50 (Aβ42 secretion; [1]): 15.4 µM
Compound: C=CCc1ccc(OC(=O)C(C)NC(=O)c2cccnc2)c(OC)c1 (centres unmarked) [Compound 14, 4-allyl-2-methoxyphenyl 2-(nicotinamido) propanoate]
